From patent publication US20250367170A1, “TOPICAL ANGIOTENSIN II RECEPTOR BLOCKERS (ARBS) FOR TREATING EYE CONDITIONS” (The Cleveland Clinic Foundation, priority 2022, published 2025)

Experiments:
Format in all cases: in vivo, New Zealand White rabbits
[1] = system: rabbit corneas after Descemetorhexis; experiment: Slit lamp opacity, scarring fibrosis and neovascularization one month after Descemetorhexis or sham surgery; conditions: for intensity of opacity in a 2.5 mm circle of central cornea (ImageJ) vs vehicles or oral losartan alone: P<0.05
Protocol: All procedures involving animals were approved by the Institutional Animal Care and Use Committee (IACUC) at the Cleveland Clinic Foundation (Cleveland, OH, USA) and the Animal Care and Use Review Office of the Department of the Army (Fort Detrick, MD). All animals were treated in accordance with the tenets of the ARVO Statement for the Use of Animals in Ophthalmic and Vision Research. Twenty-eight 10- to 15-week-old female New Zealand White rabbits weighing 2.5 to 3.0 kg each were included in this study—four in each group.
The rabbits had general anaesthesia with 30 mg/kg ketamine hydrochloride and 5 mg/kg xylazine by IM injection. In addition, topical proparacaine hydrochloride 1% (Alcon, Ft Worth, TX, USA) was applied to each eye prior to the surgery. One cornea selected at random in each group either had sham surgery without Descemetorhexis or an 8 mm diameter central Descemet's membrane-endothelial excision. The time point of one month after surgery was selected for the study because myofibroblasts and fibrosis in the posterior cornea was maximal at this time point in a prior time course Descemetorhexis study (Sampaio et al., 2021). Descemetorhexis was performed as described in the prior study (Sampaio et al., 2021). Briefly, a wire lid speculum was placed into one eye of each rabbit and an 8 mm diameter gentian violet circle was marked on the epithelial surface for reference. A limbal entry incision was created with a 1.6 mm blade (Bausch and Lomb, Rochester, NY, USA) and 0.3 ml Healon OVD (Abbott Medical Optics Inc. Santa Ana, CA, USA) was injected into the anterior chamber. A reversed Sinskey hook (Katena, Denville, New Jersey, USA) was placed into the anterior chamber and an 8 mm diameter disc of Descemet's membrane and endothelium was excised underlying the 8 mm area previously marked on the anterior corneal surface, without a subsequent endothelial corneal transplant. No removal of Descemet's membrane or endothelium was performed in unwounded sham surgery eyes. Remaining Healon OVD was removed with a Simcoe irrigation and aspiration cannula (Bausch & Lomb, Storz, Rochester, NY, USA) and the anterior chamber was filled with balanced salt solution (BSS). A single 10-0 nylon suture was placed at the incision site to prevent leakage from the anterior chamber. One drop of ciprofloxacin (Alcon, Ft. Worth, TX, USA) was applied to the corneas immediately after surgery and four times a day until the epithelium entry wound healed at approximately 2 days.
The oral solution was prepared with 5 ml distilled water+50 ml ora-plus (suspending vehicle—Perrigo, Dublin, Ireland)+45 ml Ora-sweet (flavored syrup vehicle—Perrigo).
After one month of treatment, study eyes were dilated with two drops of 1% tropicamide (Akom Co., Lake Forest, IL) for thirty minutes. After general anaesthesia, the study eye in each rabbit had standardized slit lamp photographs at 20× magnification with a Haag Streit (Mason, OH, USA) BX900 slit lamp photography system using identical lighting position and intensity. For each study eye, the intensity of a 2.5 mm diameter central circle (not including the light reflex, examples shown in FIG. 1) was determined using ImageJ 1.53a analysis software. Statistical comparisons of the intensity of opacity was performed using the Kruskal-Wallis test followed by post-hoc Dunn's-Bonferroni test and p<0.05 was considered statistically significant

collagen type IV = experiment: IHC collagen type IV intensity in posterior stroma (ImageJ) after Descemetorhexis; conditions: one month
Protocol: (§1) Duplex immunohistochemistry (IHC) was performed after masking of slides by a researcher not involved in the analysis using previously described methods (de Oliveira et al., 2021) using primary antibodies (Table 2) confirmed by western blotting and IHC to recognize rabbit antigens or isotypic control antibodies (ThermoFisher Scientific, Waltham, MA), and secondary fluorescent tagged antibodies (Table 3).
The AB769 (Millipore, Temecula CA) collagen type IV antibody used in this study was generated against purified human and bovine collagen type IV, affinity purified with human and bovine collagen type IV crosslinked to agarose and cross-absorbed by the manufacturer with human and bovine collagens type I, II, III, V and VI to eliminate cross-reactivity. This antibody was shown previously to bind rabbit collagen IV in IHC (Sampaio et al., in press). […]
Collagen type IV intensity in immunohistochemistry images was quantitated in 0.75 W×0.5H rectangles of posterior stroma tangent to the posterior corneal surface using ImageJ on 7.62 cm wide×5.69 cm height and 300 DPI images generated using standardized microscopic illumination settings applied to all sections. The quantitation rectangles were positioned such that the posterior side of the rectangle was tangent to the posterior corneal surface just anterior to Descemet's membrane, if one was present, in the analysed specimens. […]

TGF beta-1 = experiment: IHC TGF beta-1 in posterior stroma after Descemetorhexis; conditions: topical and/or oral losartan
Protocol: as §1
The AB769 (Millipore, Temecula CA) collagen type IV antibody used in this study was generated against purified human and bovine collagen type IV, affinity purified with human and bovine collagen type IV crosslinked to agarose and cross-absorbed by the manufacturer with human and bovine collagens type I, II, III, V and VI to eliminate cross-reactivity. This antibody was shown previously to bind rabbit collagen IV in IHC (Sampaio et al., in press). The keratocan antibody was raised against peptide H2N-[…]-OH (SEQ ID NO:1).

[2] = system: central corneal neovascularization (CNV); experiment: Corneal angiography for central corneal neovascularization after alkali burn; conditions: topical six times per day, one month, all four vehicle corneas positive
Protocol: Alkali injuries were produced in one eye of rabbits with previously published methods^10 using 1N sodium hydroxide (Sigma, St. Louis, MO) in balanced salt solution (BSS, 0.64% sodium chloride, 0.075% potassium chloride, 0.048% calcium chloride dihydrate, 0.03% magnesium chloride hexahydrate, 0.39% sodium acetate trihydrate, 0.17% sodium citrate dihydrate, pH 7.5, Alcon, Ft. Worth, TX) and a 5 mm diameter circular Whatman No. 1 filter paper (Cat #1001-6508, Fisher Scientific) wetted with 100 μl of 1N NaOH solution. Following the alkali burn injury, the cornea was irrigated profusely with BSS. Each injured cornea also received one drop of ciprofloxacin (Alcon, Ft. Worth, TX, USA) ten minutes after surgery and four times a day for one week and at least 15 minutes apart from the study medications.
Worth TX), at least 5 minutes apart, or 4) 50 μl of BSS.
All corneas had fluorescent angiography at the peak of dye passage in the cornea immediately after injection of 1.5 ml of 10% sodium fluorescein (McKesson, Irvine, TX) in the central ear vein with the slit lamp system and digital camera system using a “barrier filter” that only transmitted 520-530 nm, the peak of fluorescein emission, with broad illumination of the cornea, as previously described.^11

[3] = Descemetorhexis, topical losartan

In the case of CCCCc1nc(Cl)c(CO)n1Cc1ccc(-c2ccccc2-c2nn[nH]n2)cc1 [losartan], the “scarring fibrosis and neovascularization compared to vehicle control corneas” value ([1]; Descemetorhexis, oral 5 mg/kg three times a day) is reported as “no difference”, the “scarring fibrosis (slit lamp)” value ([1]; Descemetorhexis, topical 0.1 mg/ml six times per day) is reported as “overall decrease” and the “changes in corneal opacity and neovascularization compared with topical losartan alone” value ([1]; Descemetorhexis, topical 0.1 mg/ml six times per day and oral 5 mg/kg three times a day) is reported as “not different”. The “intensity of opacity in a 2.5 mm circle of central cornea (ImageJ) vs vehicles or oral losartan alone” value ([1]; Descemetorhexis, topical and oral losartan) was “significant decrease”, the “corneal neovascularization that developed after Descemetorhexis” value [1, 3] was “reduced” and the “intensity of opacity in a 2.5 mm circle of central cornea (ImageJ) vs vehicles or oral losartan alone” value [1, 3] was “significant decrease”. For the same compound, the “effect on the transparency of sham unwounded corneas” value ([1]; oral 5 mg/kg three times per day) was “no effect”, the “effect on the transparency of sham unwounded corneas” value ([1]; topical 0.1 mg/ml six times per day) was “no effect” and the “posterior stromal collagen type IV production vs topical and oral vehicle” value (collagen type IV; topical and oral losartan) was “significantly decreased”. For the same compound, the “posterior stromal collagen type IV production vs topical and oral vehicle” value (collagen type IV; topical losartan) was “significantly decreased”, the “levels of TGF beta-1 in the posterior stroma or at the posterior stromal surface vs vehicle” value (TGF beta-1) was “No effect” and the “corneas (of four) that developed central corneal neovascularization” value [2] was “two”.
